These results are taken from paper PMC8197871, “Biochemical and Initial Structural Characterization of the Monocot Chimeric Jacalin OsJAC1” (International Journal of Molecular Sciences, 2021).

“And” between values parts separate entries of the source, which are not always exact repeats. Identical values can stand only once.

Data set [1] deals with T1, DIR domain of OsJAC1 (Oryza sativa, UniProt Q306J3, T49I).
T1 construct: gene JAC1; isolated dirigent domain SKLQITPCGM...FCPLLKGS; Thr to Ile point mutation (NDKKIGLG); N-terminal His6 tag and thrombin site kept; E. coli BL21(DE3), pET15b(+); dimer/tetramer by SEC
T1 sequence (Q306J3 5-159 T49I): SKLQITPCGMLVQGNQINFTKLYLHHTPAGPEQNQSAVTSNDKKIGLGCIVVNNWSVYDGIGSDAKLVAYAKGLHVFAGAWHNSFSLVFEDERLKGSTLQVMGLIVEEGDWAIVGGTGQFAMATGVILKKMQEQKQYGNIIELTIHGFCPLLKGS
Nature of the data set: nano differential scanning fluorimetry; near-UV CD. In kind it is binding. To be noted: 50 mM sugar, 4 mM DTT, 50 mM KPi pH 7.4; CD with 1 mM sugar.

Data set [2] has as its target T2, OsJAC1 (Oryza sativa, UniProt Q306J3).
T2 construct: gene JAC1; full length, DIR + JRL domains; N-terminal His6 tag and thrombin site kept; E. coli BL21(DE3), pColdIV
T2 sequence (Q306J3 1-306): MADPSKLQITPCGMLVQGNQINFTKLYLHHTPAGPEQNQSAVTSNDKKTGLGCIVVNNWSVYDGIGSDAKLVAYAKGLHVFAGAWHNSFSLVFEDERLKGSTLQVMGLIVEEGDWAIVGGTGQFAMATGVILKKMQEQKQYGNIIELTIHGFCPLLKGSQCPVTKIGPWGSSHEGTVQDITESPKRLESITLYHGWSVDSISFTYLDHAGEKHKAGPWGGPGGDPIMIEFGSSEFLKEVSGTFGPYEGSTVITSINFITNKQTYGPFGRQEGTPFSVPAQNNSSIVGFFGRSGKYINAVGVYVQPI
Nature of the data set: nano differential scanning fluorimetry. It is filed as binding. The conditions noted are these: 50 mM sugar, 4 mM DTT, 50 mM KPi pH 7.4; TM1 = JRL domain transition.

A further data set concerns the target T3, JRL domain of OsJAC1 (Oryza sativa, UniProt Q306J3).
T3 construct: gene JAC1; isolated jacalin-related lectin domain QCPVTKIGPWGSSHEG...INAVGVYVQPI; N-terminal His6 tag and thrombin site kept; E. coli BL21(DE3), pET15b(+); thermal shifts measured in 1:1 mixture with the isolated DIR domain
T3 sequence (Q306J3 160-306): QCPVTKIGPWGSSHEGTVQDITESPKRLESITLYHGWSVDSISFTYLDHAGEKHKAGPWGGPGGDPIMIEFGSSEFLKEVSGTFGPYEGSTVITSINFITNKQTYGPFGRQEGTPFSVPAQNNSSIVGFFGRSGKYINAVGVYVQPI
Nature of the data set: nano differential scanning fluorimetry. To be noted: 50 mM sugar, 4 mM DTT, 50 mM KPi pH 7.4; 1:1 mixture with DIR domain. In kind it is binding.

Data set [3] concerns the target T1, DIR domain of OsJAC1. Nature of the data set: nano differential scanning fluorimetry. In kind it is binding. To be noted: 50 mM sugar, 4 mM DTT, 50 mM KPi pH 7.4.
The target in data set [4] is T2, OsJAC1. Briefly: nano differential scanning fluorimetry. In kind it is binding. To be noted: 50 mM sugar, 4 mM DTT, 50 mM KPi pH 7.4, TM2 = DIR domain transition.
In data set [5] the target is DIR (dirigent) domain protein of OsJAC1, His6-tagged (Oryza sativa). Briefly: SEC; HiLoad 16/600 Superdex 200 pg; 50 mM KPi pH 7.4, 300 mM NaCl; 1 mL of 10 mg/mL protein injected, 1 mL/min; apparent masses from calibration proteins.
Data set [6] deals with the molecule itself. Nature of the data set: dynamic light scattering; OsJAC1 1.1 mg/mL in 15 mM TRIS-HCl pH 7.4, alone or with 150 mM CaCl2, 50 mM lactose, 150 mM MgSO4 or 4 mM DTT; apparent molecular masses.

Consider `OC[C@H]1O[C@@H](O[C@@H]2[C@H](O)[C@@H](O)C(O)O[C@@H]2CO)[C@H](O)[C@@H](O)[C@H]1O` (some centres unmarked) [galactobiose], for which the dTM2 entry on DIR domain of OsJAC1 [1] was “galactobiose (DIR domain) and laminaribiose (JRL domain), caused major shifts in the CD spectra”.

Regarding `OC[C@H]1OC(O)[C@@H](O)[C@@H](O)[C@@H]1O` (some centres unmarked) [mannose], the dTM1 on OsJAC1 [2] and at JRL domain of OsJAC1 was 1 K throughout.

For the molecule `OC[C@H]1O[C@@H](O[C@H]2[C@H](O)[C@@H](O)C(O)O[C@@H]2CO)[C@H](O)[C@@H](O)[C@H]1O` (some centres unmarked) [lactose], the dTM2 entry at DIR domain of OsJAC1 [3] was “(e.g., galactose and lactose) had a positive impact on TM2 of the DIR domain”; at OsJAC1 [4], “(e.g., galactose and lactose) had a positive impact on TM2 of the DIR domain”.

In the case of “DIR (dirigent) domain protein of OsJAC1, His6-tagged (domain or fragment)”, in data set [5], the stoichiometry N was 2 and 4.

In the case of `OC[C@H]1OC(O)[C@H](O)[C@@H](O)[C@H]1O` (some centres unmarked) [galactose], the figures for the dTM2 on DIR domain of OsJAC1 [3] (printed as up to) and at OsJAC1 [4] (printed as up to) were ~ 3 K and ~ 2 K, respectively.

Take `OC[C@H]1OC(O)[C@H](O)[C@@H](O)[C@@H]1O` (some centres unmarked) [glucose]: the dTM1 on OsJAC1 [2] and on JRL domain of OsJAC1 was 1 K in each case.

B1: monocot chimeric jacalin OsJAC1 from Oryza sativa, full-length protein, His6-tagged (natural protein)
chain: T2 sequence (Q306J3 1-306)
notes: OsJAC1 of rice (Oryza sativa), full-length protein; numbers count on: the His6-tagged construct as printed (23 tag and linker residues before M24); no cleavage of the tag is described; also called full-length OsJAC1; chimeric lectin OsJAC1; source: E. coli BL21(DE3), purified (IMAC on Ni-NTA, SEC); not shown: His6, N-terminal, kept
Regarding B1, in data set [6], the binding result was “binds”.
